According to patent US7560458B2, “Triazolopyrimidine derivatives as glycogen synthase kinase 3 inhibitors” (Janssen Pharmaceutica, N.V., priority 2003, dated 2009):

Legend:
GSK3β = GSK3β (Homo sapiens, UniProt P49841); assay: GSK3beta assay (SPA, biotinylated phosphorylated CREB peptide, ATP-P33); format: biochemical; details: −log IC50 (M); given as ranges (>8; 7-8; <7); read-out: pIC50 (GSK3beta) (converted)
How it was run: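 Radiometric SPA at room temperature, pH 7.4 Tris/MgCl2/DTT/BSA/glycerol, with 5.7 ng/μl GSK3β, 5 μM biotinylated phospho-CREB peptide, 1 μM ATP plus 33P-ATP for 1 h. Stopped with streptavidin SPA beads, counted after overnight settling; % inhibition versus no-compound control, IC50 from dose-response curve.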

GSK3alpha = GSK3alpha (Homo sapiens, UniProt P49840); assay: GSK3alpha assay (same as the GSK3beta assay, GSK3alpha 0.25 ng/μl); format: biochemical; details: −log IC50 (M); given as ranges (>8; 7-8; <7); read-out: pIC50 (GSK3alpha) (converted)
How it was run: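 GSK3α at 0.25 ng/μl phosphorylated 5 μM biotinylated phospho-CREB peptide with 1 μM ATP and 33P-ATP for 1 h at room temperature, in 25 mM Tris pH 7.4 with 10 mM MgCl2 and 1 mM DTT. Phosphorylated peptide was captured on streptavidin SPA beads and counted. IC50 was taken from dose-response curves.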

GSK3alpha, sequence (P49840 whole entry, species assumed): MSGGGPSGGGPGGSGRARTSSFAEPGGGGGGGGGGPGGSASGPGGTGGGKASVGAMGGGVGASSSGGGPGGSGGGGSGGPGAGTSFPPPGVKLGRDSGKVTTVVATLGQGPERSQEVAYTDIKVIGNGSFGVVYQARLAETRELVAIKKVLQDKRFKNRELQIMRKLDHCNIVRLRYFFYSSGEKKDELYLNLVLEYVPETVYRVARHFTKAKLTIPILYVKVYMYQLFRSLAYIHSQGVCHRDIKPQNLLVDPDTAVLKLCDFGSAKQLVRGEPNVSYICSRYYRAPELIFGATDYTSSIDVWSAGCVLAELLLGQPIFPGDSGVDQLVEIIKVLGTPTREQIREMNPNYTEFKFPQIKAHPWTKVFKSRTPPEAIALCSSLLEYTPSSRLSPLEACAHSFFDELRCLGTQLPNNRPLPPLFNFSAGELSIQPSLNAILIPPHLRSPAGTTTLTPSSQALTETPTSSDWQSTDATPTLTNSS
GSK3β, sequence (P49841 whole entry, species assumed): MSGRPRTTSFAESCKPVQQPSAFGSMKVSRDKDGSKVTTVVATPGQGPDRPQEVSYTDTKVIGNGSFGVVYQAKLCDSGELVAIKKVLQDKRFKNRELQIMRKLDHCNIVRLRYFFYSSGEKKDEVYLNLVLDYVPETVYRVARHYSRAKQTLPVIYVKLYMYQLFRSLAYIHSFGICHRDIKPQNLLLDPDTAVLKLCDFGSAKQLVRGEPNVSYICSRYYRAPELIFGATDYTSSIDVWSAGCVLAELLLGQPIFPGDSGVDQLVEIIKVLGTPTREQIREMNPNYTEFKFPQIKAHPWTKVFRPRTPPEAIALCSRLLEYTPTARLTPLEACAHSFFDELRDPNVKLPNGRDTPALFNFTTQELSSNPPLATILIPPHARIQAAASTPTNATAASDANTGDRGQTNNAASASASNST

**Q.** For `COc1cc(Nc2ncc3nnn(-c4cccc(F)c4)c3n2)ccc1C(=O)O` [Compound 298], which IC50 (GSK3β) is on record?
**A.** Its IC50 is under 1e-08 M.

**Q.** And the IC50 (GSK3alpha)?
**A.** The IC50 was under 1e-08 M.

**Q.** What about the melting point of the same compound?
**A.** The melting point was 232 °C.

**Q.** Which results are given for `C=CCN(c1cccc(Nc2ncc3nnn(-c4cccc(CO)c4)c3n2)c1)S(C)(=O)=O` [Compound 69]?
**A.** IC50 (GSK3β): < 1e-08 M; IC50 (GSK3alpha): 1e-08 M; melting point: 158 to 162 °C

**Q.** With `N#Cc1cccc(Nc2ncc3nnn(-c4cccc(F)c4)c3n2)c1` [Compound 8] as the compound, how does the IC50 (GSK3β) read?
**A.** The IC50 was under 1e-08 M.

**Q.** And the IC50 (GSK3alpha)?
**A.** The IC50 was under 1e-08 M.

**Q.** And the melting point?
**A.** Its melting point is 228 to 230 °C.

**Q.** Which results are given for `COCc1cccc(-n2nnc3cnc(Nc4cccc([S+](C)[O-])c4)nc32)c1` (stereo not drawn) [Compound 148]?
**A.** IC50 (GSK3β): < 1e-08 M; IC50 (GSK3alpha): < 1e-08 M; melting point: 142 to 146 °C

**Q.** Which IC50 (GSK3β) does the source give for `CN(C)CCCOc1ccc(Nc2ncc3nnn(-c4cccc(F)c4)c3n2)cc1` [Compound 297] here?
**A.** Its IC50 is 1e-08 to 1e-07 M.

**Q.** What about the IC50 (GSK3alpha) of the same compound?
**A.** The IC50 was 1e-08 to 1e-07 M.

**Q.** What about the melting point of the same compound?
**A.** The melting point was 137 °C.

**Q.** With `CC(C)Oc1cccc(Nc2ncc3nnn(-c4cccc(F)c4)c3n2)c1` [Compound 28] as the compound, how does the IC50 (GSK3β) read?
**A.** Its IC50 is under 1e-08 M.

**Q.** What about the IC50 (GSK3alpha) of the same compound?
**A.** Its IC50 is under 1e-08 M.

**Q.** And the melting point?
**A.** The melting point was 142 to 146 °C.

**Q.** With `O=C(O)/C=C/c1cccc(Nc2ncc3nnn(-c4cccc(F)c4)c3n2)c1` [Compound 10] as the compound, how does the IC50 (GSK3β) read?
**A.** Its IC50 is under 1e-08 M.

**Q.** What about the IC50 (GSK3alpha) of the same compound?
**A.** Its IC50 is under 1e-08 M.

**Q.** And the melting point?
**A.** The melting point was over 250 °C.

**Q.** For `COc1cc(OC)cc(-n2nnc3cnc(Nc4cccc(C#N)c4)nc32)c1` [Compound 6], which IC50 (GSK3β) is on record?
**A.** The IC50 was under 1e-08 M.

**Q.** What about the IC50 (GSK3alpha) of the same compound?
**A.** Its IC50 is under 1e-08 M.

**Q.** And the melting point?
**A.** Its melting point is 228 to 232 °C.
